This passage reports MIC results from patent US8399419B2, “Antibacterial aminoglycoside analogs” (Achaogen, Inc., priority 2008, dated 2013).

In brackets after ≈: the same amount, converted by molar mass.

Assay [1] deals with E. coli ATCC 25922. As to the kind of experiment: MIC assay (CLSI broth microdilution), AECO001. The assay is classed as cell-based. The settings on record: Escherichia coli; AECO001 is ATCC25922 (E. coli); Mueller Hinton Broth, 35 C, 20 hours. The protocol:
(§1) Minimum inhibitory concentrations (MIC) were determined by reference Clinical and Laboratory Standards Institute (CLSI) broth microdilution methods per M7-A7 [2006]. Quality control ranges utilizing E. coli ATCC 25922, P. aeruginosa ATCC 27853 and S. aureus ATCC 29213, and interpretive criteria for comparator agents were as published in CLSI M100-S17 [2007]. Briefly, serial two-fold dilutions of the test compounds were prepared at 2× concentration in Mueller Hinton Broth. The compound dilutions were mixed in 96-well assay plates in a 1:1 ratio with bacterial inoculum. The inoculum was prepared by suspension of a colony from an agar plate that was prepared the previous day. Bacteria were suspended in sterile saline and added to each assay plate to obtain a final concentration of 5×10^5 CFU/mL. The plates were incubated at 35 C for 20 hours in ambient air.

In assay [2] the test system is P. aeruginosa ATCC 27853. As to the kind of experiment: MIC assay (CLSI broth microdilution), APAE001. In kind it is cell-based. Particulars: Pseudomonas aeruginosa; APAE001 is ATCC27853 (P. aeruginosa); Mueller Hinton Broth, 35 C, 20 hours. The method, then:
as §1
(In broth dilution the organism is exposed to a series of concentrations in liquid medium.)

As to `NCC(O)CN[C@@H]1C[C@H](N)[C@@H](O[C@H]2O[C@H](CN)CC[C@H]2N)[C@H](O[C@@H]2O[C@H](CO)[C@@H](O[C@H]3O[C@@H](CN)CC[C@H]3N)[C@H]2O)[C@H]1O` (stereo partly drawn) [Example 12/Compound 3, 3′,4′,3′″,4′″-tetra-deoxy-1-(2-hydroxy-3-amino-propyl)-neomycin], the values for the minimum inhibitory concentration (MIC) in assay [1] and in assay [2] were 1 to 16 µg/mL (≈ 1.6 to 25.7 µM) and ≤ 1 µg/mL, respectively.

In the case of `NC[C@@H]1CC[C@@H](N)[C@@H](O[C@H]2[C@H](O[C@@H]3O[C@H](CO)[C@@H](O[C@H]4O[C@@H](CN)CC[C@H]4N)[C@H]3O)[C@@H](O)[C@H](NC(=O)[C@@H](O)[C@@H](O)CN)C[C@@H]2N)O1` [Example 28/Compound 6, 3′,4′,3′″,4′″-tetra-deoxy-1-(4-amino-3,2-(S,S)-bis-hydroxy-butyryl)-neomycin], the MIC in assay [1] and in assay [2] was ≤ 1 µg/mL in each case.

With `NCC[C@H](O)C(=O)N[C@@H]1C[C@H](N)[C@@H](O[C@H]2O[C@H](CN)CC[C@H]2N)[C@H](O[C@@H]2O[C@H](CO)[C@@H](O[C@H]3O[C@H](CN)CC[C@H]3N)[C@H]2O)[C@H]1O` [Example 6/Compound 9], the MIC in assay [1] and in assay [2] was 1 to 16 µg/mL (≈ 1.53 to 24.5 µM) throughout.

With `NC[C@@H]1CC[C@@H](N)[C@@H](O[C@H]2[C@H](O[C@@H]3O[C@H](CO)[C@@H](O[C@H]4O[C@@H](CN)CC[C@H]4N)[C@H]3O)[C@@H](O)[C@H](NC(=O)[C@@H](O)C(F)(F)CN)C[C@@H]2N)O1` [Example 26/Compound 6, 3′,4′,3′″,4′″-tetra-deoxy-1-(4-amino-3,3-bisfluoro-2(R)-hydroxy-butyryl)-neomycin], the minimum inhibitory concentration (MIC) in assay [1] and in assay [2] was ≤ 1 µg/mL each time.

Take `NC[C@H]1CC[C@@H](N)[C@@H](O[C@H]2[C@@H](O)[C@H](O[C@@H]3[C@@H](O)[C@H](N)C[C@H](N)[C@H]3O[C@H]3O[C@H](CO)CC[C@H]3N)O[C@@H]2CO)O1` [Example 2/Compound 8]: the MIC in assay [1] is 1 to 16 µg/mL (≈ 1.81 to 29 µM); in assay [2] it was > 16 µg/mL.

Consider `CC(=O)N[C@@H]1C[C@H](N)[C@@H](O[C@H]2O[C@H](CN)CC[C@H]2N)[C@H](O[C@@H]2O[C@H](CO)[C@@H](O[C@H]3O[C@@H](CN)CC[C@H]3N)[C@H]2O)[C@H]1O` [Example 8/Compound 3], for which the MIC in assay [1] and in assay [2] was 1 to 16 µg/mL (≈ 1.69 to 27 µM) each time.

For the compound `NC[C@@H]1CC[C@@H](N)[C@@H](O[C@H]2[C@H](O[C@@H]3O[C@H](CO)[C@@H](O[C@H]4O[C@@H](CN)CC[C@H]4N)[C@H]3O)[C@@H](O)[C@H](NC(=O)C3(O)CNC3)C[C@@H]2N)O1` [Example 10/Compound 4], the MIC in assay [1] and in assay [2] was ≤ 1 µg/mL in each case.

Turning to `NCCN(O)C(=O)N[C@@H]1C[C@H](N)[C@@H](O[C@H]2O[C@H](CN)CC[C@H]2N)[C@H](O[C@@H]2O[C@H](CO)[C@@H](O[C@H]3O[C@@H](CN)CC[C@H]3N)[C@H]2O)[C@H]1O` [Example 22/Compound 6], the minimal inhibitory concentration (MIC) in assay [1] and in assay [2] was ≤ 1 µg/mL throughout.

With `NC[C@@H]1CC[C@@H](N)[C@@H](O[C@H]2[C@H](O[C@@H]3O[C@H](CO)[C@@H](O[C@H]4O[C@@H](CN)CC[C@H]4N)[C@H]3O)[C@@H](O)[C@H](NC(=O)[C@@H](O)[C@H](F)CN)C[C@@H]2N)O1` [Example 24/Compound 8, 3′,4′,3′″,4′″-tetra-deoxy-1-(4-amino-3(R)-fluoro-2(R)-hydroxy-butyryl)-neomycin], the minimum inhibitory concentration (MIC) in assay [1] and in assay [2] was ≤ 1 µg/mL throughout.

Regarding `NC[C@@H]1CC[C@@H](N)[C@@H](O[C@H]2[C@H](O[C@@H]3O[C@H](CO)[C@@H](O[C@H]4O[C@@H](CN)CC[C@H]4N)[C@H]3O)[C@@H](O)[C@H](NC(=O)[C@@H](N)CO)C[C@@H]2N)O1` [Example 20/Compound 3, 3′,4′,3′″,4′″-tetra-deoxy-1-(2(S)-amino-3-hydroxy-propionyl)-neomycin], the minimal inhibitory concentration (MIC) in assay [1] and in assay [2] was 1 to 16 µg/mL (≈ 1.57 to 25.1 µM) each time.

Consider `NC[C@@H]1CC[C@@H](N)[C@@H](O[C@H]2[C@H](O[C@@H]3O[C@H](CO)[C@@H](O[C@H]4O[C@@H](CN)CC[C@H]4N)[C@H]3O)[C@@H](O)[C@H](NC(=O)[C@H](O)C(F)(F)CN)C[C@@H]2N)O1` [Example 27/Compound 6, 3′,4′,3′″,4′″-tetra-deoxy-1-(4-amino-3,3-bisfluoro-2(S)-hydroxy-butyryl)-neomycin], for which the minimum inhibitory concentration (MIC) in assay [1] and in assay [2] was 1 to 16 µg/mL (≈ 1.45 to 23.3 µM) in each case.

On to `NC[C@@H]1CC[C@@H](N)[C@@H](O[C@H]2[C@H](O[C@@H]3O[C@H](CO)[C@@H](O[C@H]4O[C@@H](CN)CC[C@H]4N)[C@H]3O)[C@@H](O)[C@H](N)C[C@@H]2N)O1` [Example 3/Compound 6, 3′,4′,3′″,4′″-tetra-deoxy-neomycin], for which the minimum inhibitory concentration (MIC) in assay [1] and in assay [2] was ≤ 1 µg/mL throughout.

Usually MIC stands for the lowest concentration found to suppress growth. Low values mean inhibition by little substance, high ones a need for much substance.
